Source: patent publication US12251387B2, “Substituted quinoxalines and benzo[c][1,2,5]oxadiazoles as DNA-PK inhibitors” (Vertex Pharmaceuticals Incorporated, priority 2013, dated 2025)

Target: DNA-PK (Homo sapiens, UniProt P78527)
Experiment: DNA-PK Inhibition Assay (standard radiometric kinase assay, 33P-ATP, peptide substrate)
Type: biochemical
Conditions: radiometric assay, approximately 6 nM DNA-PK, 100 μM ATP, 45 min; fit to competitive tight-binding inhibition; read-out: Ki for the inhibition of DNA-PK
Summary of the method: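 Radiometric transfer of 33P from ATP (100 μM) to peptide substrate (0.8 mg/mL) by about 6 nM DNA-PK with 10 μg/mL sheared dsDNA, pH 7.5 HEPES/MgCl2, 45 min, phosphoric acid quench, filter capture and scintillation counting. Ki fitted to a competitive tight-binding inhibition model.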

Row | SMILES | Ki [nM]
1 | CN(C)Cc1cnc(N[C@H]2CC[C@@H](Oc3cc(N4CCOCC4)cc4nccnc34)CC2)nc1 [Compound 529] | < 100
2 | Cc1ncc(N[C@H]2CC[C@@H](Oc3cc(N4CCOCC4)cc4nccnc34)CC2)nc1C [Compound 314] | < 100
3 | CN(C)C(=O)c1cc(N[C@H]2CC[C@@H](Oc3cc(N4CCOCC4)cc4nccnc34)CC2)ncn1 [Compound 361] | < 100
4 | Cc1ncc(-c2cc(N[C@H]3CC[C@@H](Oc4cc(N5CCOCC5)cc5nccnc45)CC3)ncn2)cn1 [Compound 426] | < 100
5 | Cc1nccc(N[C@H]2CC[C@@H](Oc3cc(C4=CCOC4)cc4nccnc34)CC2)n1 [Compound 289] | < 100
6 | Cc1cnc(N[C@H]2CC[C@@H](Oc3cc(N4CCOCC4)cc4nccnc34)CC2)cn1 [Compound 282] | < 100
7 | COc1nc(N[C@H]2CC[C@@H](Oc3cc(N4CCOCC4)cc4nccnc34)CC2)nc(OC)n1 [Compound 608] | < 100
8 | COc1nccnc1N[C@H]1CC[C@@H](Oc2cc(N3CCOCC3)cc3nccnc23)CC1 [Compound 312] | < 100
9 | c1cc(C2CC2)nc(N[C@H]2CC[C@@H](Oc3cc(N4CCOCC4)cc4nccnc34)CC2)n1 [Compound 455] | < 100
10 | Cc1nccc(N[C@H]2CC[C@@H](Oc3cc(C4=COCC4)cc4nccnc34)CC2)n1 [Compound 288] | < 100
11 | COCCOc1cnc(N[C@H]2CC[C@@H](Oc3cc(N4CCOCC4)cc4nccnc34)CC2)nc1 [Compound 612] | < 100
12 | c1cnc2nc(N[C@H]3CC[C@@H](Oc4cc(N5CCOCC5)cc5nccnc45)CC3)sc2c1 [Compound 330] | < 100
13 | Cc1ncnc(N[C@H]2CC[C@@H](Oc3cc(N4CCOCC4)cc4nccnc34)CC2)c1F [Compound 477] | < 100
14 | CN1CCc2cnc(N[C@H]3CC[C@@H](Oc4cc(N5CCOCC5)cc5nccnc45)CC3)nc2C1 [Compound 556] | < 100
15 | CN1CC[C@H](Nc2ncnc(N[C@H]3CC[C@@H](Oc4cc(N5CCOCC5)cc5nccnc45)CC3)c2F)C1 [Compound 343] | < 100
16 | c1cc(OCCN2CCOCC2)nc(N[C@H]2CC[C@@H](Oc3cc(N4CCOCC4)cc4nccnc34)CC2)n1 [Compound 560] | < 100
17 | CCc1cc(N[C@H]2CC[C@@H](Oc3cc(N4CCOCC4)cc4nccnc34)CC2)nc(C)n1 [Compound 597] | < 100
18 | OCc1cccnc1N[C@H]1CC[C@@H](Oc2cc(N3CCOCC3)cc3nccnc23)CC1 [Compound 584] | < 100
19 | c1cnc2c(O[C@H]3C[C@@H](Nc4ncc5c(n4)COC5)C3)cc(N3CCOCC3)cc2n1 [Compound 355] | < 100
20 | CN(C)CCc1cnc(N[C@H]2CC[C@@H](Oc3cc(N4CCOCC4)cc4nccnc34)CC2)nc1 [Compound 431] | < 100
21 | CNC(=O)c1cc(N[C@H]2CC[C@@H](Oc3cc(N4CCOCC4)cc4nccnc34)CC2)ncn1 [Compound 360] | < 100
22 | CN1CCN(c2ncnc(N[C@H]3CC[C@@H](Oc4cc(N5CCOCC5)cc5nccnc45)CC3)c2F)CC1 [Compound 474] | < 100
23 | c1cnc2c(O[C@H]3CC[C@@H](Nc4ncc(OCCN5CCOCC5)cn4)CC3)cc(N3CCOCC3)cc2n1 [Compound 585] | < 100
24 | c1cnc2c(O[C@H]3CC[C@@H](Nc4ncc(CN5CCCCC5)cn4)CC3)cc(N3CCOCC3)cc2n1 [Compound 495] | < 100

Row | SMILES | Ki [nM]
25 | CN1CCc2c(N[C@H]3CC[C@@H](Oc4cc(N5CCOCC5)cc5nccnc45)CC3)ncnc21 [Compound 473] | < 100
26 | c1cc(CN2CCOCC2)nc(N[C@H]2CC[C@@H](Oc3cc(N4CCOCC4)cc4nccnc34)CC2)n1 [Compound 505] | < 100
27 | Clc1cnc(N[C@H]2CC[C@@H](Oc3cc(N4CCOCC4)cc4nccnc34)CC2)nc1 [Compound 485] | < 100
28 | Cc1cccnc1N[C@H]1CC[C@@H](Oc2cc(N3CCOCC3)cc3nccnc23)CC1 [Compound 586] | < 100
29 | CN1CCN(Cc2nccc(N[C@H]3CC[C@@H](Oc4cc(N5CCOCC5)cc5nccnc45)CC3)n2)CC1 [Compound 484] | < 100
30 | CCc1cc(N[C@H]2CC[C@@H](Oc3cc(N4CCOCC4)cc4nccnc34)CC2)ncn1 [Compound 651] | < 100
31 | c1ccc(N[C@H]2CC[C@@H](Oc3cc(N4CCOCC4)cc4nccnc34)CC2)cc1 [Compound 648] | < 100
32 | Cc1ncn2ccnc(N[C@H]3CC[C@@H](Oc4cc(N5CCOCC5)cc5nccnc45)CC3)c12 [Compound 313] | < 100
33 | CN1CCc2nc(N[C@H]3CC[C@@H](Oc4cc(N5CCOCC5)cc5nccnc45)CC3)ncc2C1 [Compound 632] | < 100
34 | c1cc(N[C@H]2CC[C@@H](Oc3cc(N4CCOCC4)cc4nccnc34)CC2)c2c(c1)OCO2 [Compound 339] | < 100
35 | c1cnc2c(O[C@H]3CC[C@@H](Nc4ncnc5[nH]cnc45)CC3)cc(N3CCOCC3)cc2n1 [Compound 516] | < 100
36 | c1cnc(NC[C@H]2CC[C@@H](Oc3cc(N4CCOCC4)cc4nccnc34)CC2)nc1 [Compound 348] | < 100
37 | CN1CCC(Nc2ncnc(N[C@H]3CC[C@@H](Oc4cc(N5CCOCC5)cc5nccnc45)CC3)c2F)C1 (stereo partly drawn) [Compound 381] | < 100
38 | CC(C)c1ccnc(N[C@H]2CC[C@@H](Oc3cc(N4CCOCC4)cc4nccnc34)CC2)n1 [Compound 634] | < 100
39 | Cc1ncncc1N[C@H]1CC[C@@H](Oc2cc(N3CCOCC3)cc3nccnc23)CC1 [Compound 448] | < 100
40 | c1cnc2c(O[C@H]3CC[C@@H](Nc4cncc5nccn45)CC3)cc(N3CCOCC3)cc2n1 [Compound 336] | < 100
41 | CC(C)(C)OC(=O)N1CCn2cnc(N[C@H]3CC[C@@H](Oc4cc(N5CCOCC5)cc5nccnc45)CC3)c2C1 [Compound 296] | < 100
42 | COCCNc1ncnc(N[C@H]2CC[C@@H](Oc3cc(N4CCOCC4)cc4nccnc34)CC2)c1F [Compound 382] | < 100
43 | COCCOc1ccc(N[C@H]2CC[C@@H](Oc3cc(N4CCOCC4)cc4nccnc34)CC2)nc1 [Compound 625] | < 100
44 | c1cc(N[C@H]2CC[C@@H](Oc3cc(N4CCOCC4)cc4nccnc34)CC2)nc(N2CCOCC2)c1 [Compound 590] | < 100
45 | Fc1cc(N[C@H]2CC[C@@H](Oc3cc(N4CCOCC4)cc4nccnc34)CC2)ccn1 [Compound 642] | < 100
46 | Cc1ccncc1N[C@H]1CC[C@@H](Oc2cc(N3CCOCC3)cc3nccnc23)CC1 [Compound 443] | < 100
47 | Cc1ncc(N)c(N[C@H]2CC[C@@H](Oc3cc(N4CCOCC4)cc4nccnc34)CC2)n1 [Compound 369] | < 100
48 | CN(C)c1nccc(N[C@H]2CC[C@@H](Oc3cc(N4CCOCC4)cc4nccnc34)CC2)n1 [Compound 453] | < 100

Row | SMILES | Ki [nM]
49 | CCc1ccnc(N[C@H]2CC[C@@H](Oc3cc(N4CCOCC4)cc4nccnc34)CC2)n1 [Compound 633] | < 100
50 | CCSc1nc(C)cc(N[C@H]2CC[C@@H](Oc3cc(N4CCOCC4)cc4nccnc34)CC2)n1 [Compound 635] | < 100
51 | CCCc1nc(C)cc(N[C@H]2CC[C@@H](Oc3cc(N4CCOCC4)cc4nccnc34)CC2)n1 [Compound 618] | < 100
52 | Clc1nc(N[C@H]2CC[C@@H](Oc3cc(N4CCOCC4)cc4nccnc34)CC2)c2cn[nH]c2n1 [Compound 423] | < 100
53 | CN1CCC(c2cnc(N[C@H]3CC[C@@H](Oc4cc(N5CCOCC5)cc5nccnc45)CC3)nc2)C1 (stereo partly drawn) [Compound 568] | < 100
54 | Cc1ccnc(N[C@H]2CC[C@@H](Oc3cc(N4CCOCC4)cc4nccnc34)CC2)c1 [Compound 283] | < 100
55 | Cn1cnc2c(N[C@H]3CC[C@@H](Oc4cc(N5CCOCC5)cc5nccnc45)CC3)ncnc21 [Compound 546] | < 100
56 | CN1CCN(C(=O)N[C@H]2CC[C@@H](Oc3cc(N4CCOCC4)cc4nccnc34)CC2)CC1 [Compound 414] | < 100
57 | Cc1cc(N[C@H]2CC[C@@H](Oc3cc(N4CCOCC4)cc4nccnc34)CC2)n[nH]c1=O [Compound 599] | < 100
58 | COC(c1ccc(N[C@H]2CC[C@@H](Oc3cc(N4CCOCC4)cc4nccnc34)CC2)nc1)C(F)(F)F (stereo partly drawn) [Compound 629] | < 100
59 | Cc1nc(C)c(C)c(N[C@H]2CC[C@@H](Oc3cc(N4CCOCC4)cc4nccnc34)CC2)n1 [Compound 436] | < 100
60 | Fc1c(NC2CCOCC2)ncnc1N[C@H]1CC[C@@H](Oc2cc(N3CCOCC3)cc3nccnc23)CC1 [Compound 378] | < 100
61 | Cc1nc(N[C@H]2CC[C@@H](Oc3cc(N4CCOCC4)cc4nccnc34)CC2)ncc1F [Compound 476] | < 100
62 | c1cc(N[C@H]2CC[C@@H](Oc3cc(N4CCOCC4)cc4nccnc34)CC2)cnn1 [Compound 354] | < 100
63 | FC(F)(F)c1cccnc1N[C@H]1CC[C@@H](Oc2cc(N3CCOCC3)cc3nccnc23)CC1 [Compound 593] | < 100
64 | CN(C)CCNC(=O)c1cnc(N[C@H]2CC[C@@H](Oc3cc(N4CCOCC4)cc4nccnc34)CC2)nc1 [Compound 328] | < 100
65 | CCc1ncnc(N[C@H]2CC[C@@H](Oc3cc(N4CC5CC(C4)O5)cc4nccnc34)CC2)c1F [Compound 318] | < 100
66 | CN(C)Cc1cc(N[C@H]2CC[C@@H](Oc3cc(N4CCOCC4)cc4nccnc34)CC2)ncn1 [Compound 390] | < 100
67 | c1cnc2c(O[C@H]3CC[C@@H](Nc4ncnc5cc[nH]c45)CC3)cc(N3CCOCC3)cc2n1 [Compound 517] | < 100
68 | Fc1ccc(N[C@H]2CC[C@@H](Oc3cc(N4CCOCC4)cc4nccnc34)CC2)nc1 [Compound 622] | < 100
69 | O=C(N[C@H]1CC[C@@H](Oc2cc(N3CCOCC3)cc3nccnc23)CC1)N1CCCCC1 [Compound 416] | < 100
70 | c1cnc2c(O[C@H]3CC[C@@H](Nc4ccc(OCCN5CCOCC5)cn4)CC3)cc(N3CCOCC3)cc2n1 [Compound 639] | < 100
71 | c1cnc2c(O[C@H]3CC[C@@H](Nc4ncc5c(n4)OCC5)CC3)cc(N3CCOCC3)cc2n1 [Compound 621] | < 100
72 | COc1cncc(NC[C@H]2CC[C@@H](Oc3cc(N4CCOCC4)cc4nccnc34)CC2)c1 [Compound 347] | < 100
